According to US11224588B2, “Combination of lipoic acid and taurine as osmoprotective agent” (OPHTALMIS MONACO, priority 2015, dated 2022):

Key:
[1] = test system: human corneal (HCE) cells; assay: Cell viability (XTT assay) after hyperosmolar stress, HCE cells; type: cell-based; details: at 0.005% and 0.001% (w/v), 4 h and 8 h post-stress; FIG. 1
Protocol: A study was carried out to determine the osmoprotective capacity of sodium lipoate (A) during hyperosmolar stress on human conjunctival (WKD) and corneal (HCE) cells. In a second phase, tests were carried out to compare the effect of lipoic acid, glycerin (B), and taurine (C), individually and when the molecules were combined, on HCE cells under hyperosmolar stress conditions. The osmoprotective activity of A, then A with B and C, was evaluated by measuring cell viability in particular. To that end, cells were preincubated for 17 h with the test substance(s). Next, the medium was removed and the cells were subjected to hyperosmolar stress by addition of sodium chloride (100 mM NaCl) to the culture medium (M199 for the WKD cells and KSFM for the HCE cells). Cell-growth control cells were contacted with isotonic medium. Cell viability was analyzed pre-osmotic stress (0 h) in order to measure the effect of the molecules remaining in contact with the cells during the 17 h of incubation, then at 4 h, 8 h and 24 h post-induction of osmotic stress. The cell viability measurement was carried out via an XTT assay. Various concentrations of A were tested for the “molecule alone” tests: 0.0005%, 0.001%, 0.005%, 0.01% and 0.05% w/v. […] To ensure the validity and the significance of the data, the results obtained were analyzed statistically. […]

corneal cells = assay: Antioxidant effect on corneal cells; type: cell-based

`O=C(O)CCCCC1CCSS1` (centres unmarked) [Sodium Lipoate, 5-(1,2-dithiolan-3-yl)pentanoic acid] was tested. Which “Osmoprotective activity against osmotic stress” value [1] did it give?
Its value is “high osmoprotective activity”.

What about the Antioxidant effect (corneal cells) of the same molecule?
Its Antioxidant effect is “rather weak”.
